Measurements: article PMC12627862, “Therapeutic targeting of endothelial calcium signaling accelerates the resolution of lung injury” (Signal Transduction and Targeted Therapy, 2025)
Starred links: 1 amine or outer side, 2 acyl side, 3 side chain; linkers in the order of their positions; H or OH if unused. Non-standard residues stand in square brackets, D forms with d. Residues, ends and D or L forms follow the SMILES beside them. ξ: configuration not given here. Oic = O=C(O)[C@@H]1C[C@@H]2CCCC[C@@H]2N1; GABOB(3R) = O=C(C[C@@H](O)CN[*:1])[*:2]; tBuAla = CC(C)(C)C[C@H](N)C(=O)O; ξVal(3-OH) = CC(C)(O)C(N)C(=O)O; 4Amb = NCc1ccc(C(=O)O)cc1

How the values were obtained:
[1] = system: splenocytes from CD1 mice; test: Cytokine release by immune cells in vitro; type: cell-based, mouse; conditions: 2 µg/mL LPS for 2 hours, VT-109 200 nM and 1 µM
Method: VT-109’s effect on cytokine release by immune cells in vitro. Freshly isolated splenocytes from CD1 mice were treated with 2 µg/mL LPS for 2 hours. Two different concentrations of VT-109 (200 nM and 1 µM) were tested, and the cells were treated concurrently with LPS. Untreated splenocytes served as the control. After the 2-hour incubation, MCP-1, TNF-α, KC, and IL-6 levels were measured in the growth media using mouse multiplexed ELISA array. Data are expressed as pg/mL.

[2] = system: CD-1 mice subjected to mechanical ventilation; test: High tidal volume mechanical ventilation (VILI); type: in vivo, mouse; conditions: HVMV 40 mL/kg bw for 2 hours; i.v. 2 µmol/kg bw
Text: Severely ill ARDS patients undergo intubation and are placed on a mechanical ventilator to maintain adequate oxygen levels in the body[42]. This supportive intervention can have detrimental effects on the lungs, leading to diffuse ventilator-induced lung injury (VILI) in the regions exposed to the highest pressure. Furthermore, VILI primarily targets alveolar epithelial cells, in contrast to indirect models of ARDS, such as endotoxemia and sepsis, where systemic inflammation predominantly injures the pulmonary endothelial barrier. Thus, as a part of a safety study, we investigated the effects of VT-109 on the pathogenesis of VILI. Mice that received vehicle or VT-109 at the most efficacious dose of 2 µmol/kg bw were subjected to high-volume mechanical ventilation (HVMV) at 40 mL/kg bw for 2 hours, and albumin extravasation was measured to determine VILI-induced vascular leakage (Fig. 4g, h).
Mice intubated with a 20-gauge catheter were ventilated using a Harvard Apparatus ventilator (Harvard Bioscience) with high tidal volumes of 40 mL/kg body weight, a respiratory rate of 80 breaths per minute, and no positive end-expiratory pressure (PEEP) for 2 hours to induce ventilator-induced lung injury (VILI). Intravenous treatment with 250 nmol/kg bw VT-109 was administered at the onset of HVMV. Mice breathing spontaneously were used as experimental control.

[3] = Non-GLP dose-escalation (MTD) study in rats; type: in vivo, rat; parameters: key to Clinical Signs / Body Weights / Clinical Chemistry / Hematology / Coagulation: NE = no effect; DA = decreased activity; LB = labored breathing; P = piloerection; HP = hunched posture; conditions: rat, in vivo; male Crl:CD (SD) rats, single IV bolus; read-out: no observed adverse effect level (NOAEL)
[4] = system: Crl:CD (SD) rats; test: Non-GLP dose-escalation (MTD) study in rats; type: in vivo, rat; parameters: key to Clinical Signs / Body Weights / Clinical Chemistry / Hematology / Coagulation: NE = no effect; DA = decreased activity; LB = labored breathing; P = piloerection; HP = hunched posture; conditions: for ALT / APTT / AST / Albumin / Alkaline Phosphatase / Blood Urea Nitrogen / Calcium / Chloride / Cholesterol / Creatinine / Fibrinogen / Globulin / Glucose / Phosphorus / Potassium / Prothrombin Time / Sodium / Total Bilirubin / Total Protein: male rats, day 2, mean, N=3; for Body Weights / Clinical Chemistry / Clinical Signs / Coagulation / Hematology: rats, n=3
[5] = in vivo; conditions: male, Crl:CD (SD), rat, iv, 5 mg/kg
Method: (§1) Blood samples were collected at predefined time points (2, 10, 30, 60, 90 minutes, and 2, 4, 6, 8, and 24 hours post-dosing) from subgroups of rats, ensuring each animal contributed a limited number of samples to minimize stress. Plasma was separated by centrifugation and stored at -80 °C until analysis. Lungs were collected at selected time points (0.5, 2, 8, and 24 hours) for drug quantification. […] Pharmacokinetic parameters, including Cmax, Tmax, AUC, half-life, clearance, and volume of distribution, were calculated using Phoenix WinNonlin software.

[6] = in vitro; conditions: mouse, plasma
Method: Stability assay of peptides in blood plasma of rodents, dogs, and humans. For the plasma stability assay, 5 μM of each peptide was incubated with species-specific plasma for 120 minutes and samples were taken at the required time points. Positive control used were molecules with known stability: enalapril, propantheline, and warfarin. The amount of test compound remaining at each time point was analyzed by LC-MS/MS. Appropriate control compounds for each species were also incubated.

[7] = Pharmacokinetic studies in rats
Method: as §1

[8] = male, Crl:CD (SD), rat, in vivo, iv, 5 mg/kg
[9] = rat lungs, single IV 5 mg/kg, Phoenix WinNonlin
[10] = rat plasma, single IV 5 mg/kg, Phoenix WinNonlin

In the case of CC(C)(C)C[C@@H]1NC(=O)C[C@@H](O)CNC(=O)[C@@H]2C[C@@H]3CCCC[C@@H]3N2C(=O)[C@H](CC(C)(C)C)NC(=O)c2ccc(cc2)CNC(=O)C(C(C)(C)O)NC(=O)[C@@H](Cc2ccccc2)NC1=O (stereo partly drawn) [compound 109, (1^2S,1^3aS,1^7aS,3S,10S,13R,16S,20R)-13-benzyl-20-hydroxy-10-(2-hydroxypropan-2-yl)-3,16-dineopentyl-1^2,1^3,1^3a,1^4,1^5,1^6,1^7,1^7a-octahydro-1^1H-4,8,11,14,17,22-hexaaza-1(1,2)-indola-6(1,4)-benzenacyclotricosaphane-2,5,9,12,15,18,23-heptaone.] (cyclo([4Amb][tBuAla][Oic][GABOB(3R)][tBuAla][dF][ξVal(3-OH)])), the “cytokine production by immune cells in vitro (MCP-1, TNFα, KC, IL-6)” value [1] is reported as “nor did it directly alter cytokine production”, the “VILI-induced vascular albumin leakage” value [2] is reported as “markedly reduced leakage” and the “recruitment of neutrophils (MPO levels in the lung tissues)” value [2] is reported as “prevented”. For the same compound, the NOAEL at 72 h [3] was 5 mg/kg, the “MTD, equivalent in humans” value ([4]; human equivalent) was ~ 2.43 mg/kg and the “LOAEL, HED” value ([4]; human equivalent dose) was ~ 1.62 mg/kg. The “NOAEL, HED” value ([4]; human equivalent dose) was ~ 0.81 mg/kg, the “lowest observed adverse effect level (LOAEL)” value ([4]; male Crl:CD (SD) rats, single IV bolus) was 10 mg/kg and the ALT ([4]; 5 mg/kg) was 52.7 U/L. It also gave an APTT ([4]; 5 mg/kg) of 17.933 d¹ Seconds, an AST ([4]; 5 mg/kg) of 71.3 U/L and an Albumin ([4]; 5 mg/kg) of 3.0400 g/dL. For the same compound, the “Alkaline Phosphatase” value ([4]; 5 mg/kg) was 381.7 U/L, the “Blood Urea Nitrogen” value ([4]; 5 mg/kg) was 13.0 mg/dL and the Calcium ([4]; 5 mg/kg) was 11.320 mg/dL. The Chloride ([4]; 5 mg/kg) was 98.3 mmol/L, the Cholesterol ([4]; 5 mg/kg) was 86.0 5.6 3 mg/dL and the Creatinine ([4]; 5 mg/kg) was 0.3139 mg/dL. For the same compound, the Fibrinogen ([4]; 5 mg/kg) was 403.0 mg/dL, the Globulin ([4]; 5 mg/kg) was 2.239 g/dL and the Glucose ([4]; 5 mg/kg) was 161.3 mg/dL. For the same compound, the Phosphorus ([4]; 5 mg/kg) was 9.10 0.44 3 mg/dL, the Potassium ([4]; 5 mg/kg) was 5.93 d² mmol/L and the “Prothrombin Time” value ([4]; 5 mg/kg) was 11.77 s. For the same compound, the Sodium ([4]; 5 mg/kg) was 141.3 mmol/L, the “Total Bilirubin” value ([4]; 5 mg/kg) was 0.127 mg/dL and the “Total Protein” value ([4]; 5 mg/kg) was 5.279 g/dL. The ALT ([4]; 10 mg/kg) was 52.0 U/L, the APTT ([4]; 10 mg/kg) was 17.800 d¹ Seconds and the AST ([4]; 10 mg/kg) was 68.3 U/L. The Albumin ([4]; 10 mg/kg) was 3.2720 0.1274 3 g/dL, the “Alkaline Phosphatase” value ([4]; 10 mg/kg) was 323.0 U/L and the “Blood Urea Nitrogen” value ([4]; 10 mg/kg) was 18.7 mg/dL. For the same compound, the Calcium ([4]; 10 mg/kg) was 11.767 mg/dL, the Chloride ([4]; 10 mg/kg) was 99.0 mmol/L and the Cholesterol ([4]; 10 mg/kg) was 88.7 2.3 3 mg/dL. The Creatinine ([4]; 10 mg/kg) was 0.318 mg/dL, the Fibrinogen ([4]; 10 mg/kg) was 453.3 mg/dL and the Globulin ([4]; 10 mg/kg) was 2.523 0.078 3 g/dL. For the same compound, the Glucose ([4]; 10 mg/kg) was 126.7 10.5 3 mg/dL, the Phosphorus ([4]; 10 mg/kg) was 9.67 0.45 3 mg/dL and the Potassium ([4]; 10 mg/kg) was 5.77 mmol/L. The “Prothrombin Time” value ([4]; 10 mg/kg) was 12.27 d¹ Seconds, the Sodium ([4]; 10 mg/kg) was 144.0 mmol/L and the “Total Bilirubin” value ([4]; 10 mg/kg) was 0.127 mg/dL. For the same compound, the “Total Protein” value ([4]; 10 mg/kg) was 5.795 0.203 3 g/dL, the ALT ([4]; 15 mg/kg) was 52.7 U/L and the APTT ([4]; 15 mg/kg) was 16.867 s. The AST ([4]; 15 mg/kg) was 69.7 U/L, the Albumin ([4]; 15 mg/kg) was 3.1030 d² 0.0465 3 g/dL and the “Alkaline Phosphatase” value ([4]; 15 mg/kg) was 286.0 U/L. The “Blood Urea Nitrogen” value ([4]; 15 mg/kg) was 15.7 d² mg/dL, the Calcium ([4]; 15 mg/kg) was 11.590 mg/dL and the Chloride ([4]; 15 mg/kg) was 97.0 d² mmol/L. For the same compound, the Cholesterol ([4]; 15 mg/kg) was 91.0 6.1 3 mg/dL, the Creatinine ([4]; 15 mg/kg) was 0.352 mg/dL and the Fibrinogen ([4]; 15 mg/kg) was 438.3 mg/dL. The Globulin ([4]; 15 mg/kg) was 2.488 0.021 3 g/dL, the Glucose ([4]; 15 mg/kg) was 142.3 d² 1.2 3 mg/dL and the Phosphorus ([4]; 15 mg/kg) was 9.00 0.26 3 mg/dL. For the same compound, the Potassium ([4]; 15 mg/kg) was 5.47 mmol/L, the “Prothrombin Time” value ([4]; 15 mg/kg) was 11.67 s and the Sodium ([4]; 15 mg/kg) was 142.0 mmol/L. The “Total Bilirubin” value ([4]; 15 mg/kg) was 0.140 mg/dL, the “Total Protein” value ([4]; 15 mg/kg) was 5.591 d² 0.067 3 g/dL and the “Body Weights” value ([4]; single IV bolus 5 mg/kg) was “NE”. For the same compound, the “Clinical Chemistry” value ([4]; single IV bolus 5 mg/kg) was “NE”, the “Clinical Signs” value ([4]; single IV bolus 5 mg/kg) was “DA” and the Coagulation ([4]; single IV bolus 5 mg/kg) was “NE”. The Hematology ([4]; single IV bolus 5 mg/kg) was “NE”, the “Body Weights” value ([4]; single IV bolus 10 mg/kg) was “NE” and the “Clinical Chemistry” value ([4]; single IV bolus 10 mg/kg) was “↑BUN”. For the same compound, the “Clinical Signs” value ([4]; single IV bolus 10 mg/kg) was “DA, LB”, the Coagulation ([4]; single IV bolus 10 mg/kg) was “NE” and the Hematology ([4]; single IV bolus 10 mg/kg) was “↓%Reticulocytes”. The “Body Weights” value ([4]; single IV bolus 15 mg/kg) was “NE”, the “Clinical Chemistry” value ([4]; single IV bolus 15 mg/kg) was “↑BUN ↑Creatinine” and the “Clinical Signs” value ([4]; single IV bolus 15 mg/kg) was “DA, LB, P, HP”. For the same compound, the Coagulation ([4]; single IV bolus 15 mg/kg) was “NE”, the Hematology ([4]; single IV bolus 15 mg/kg) was “↓Platelet Count ↓%Reticulocytes ↑Mean Platelet Volume” and the lung gross histopathology ([4]; single IV bolus 15 mg/kg) was “intra-alveolar hemorrhage and pigment deposition”. The level at 0.167 h [5] was 23700 ng/mL, the level at 0.5 h [5] was 2550 ng/mL and the level at 1 h [5] was 580 ng/mL. The level at 1.5 h [5] was 399 ng/mL, the level at 2 h [5] was 252 ng/mL and the level at 4 h [5] was 127 ng/mL. For the same compound, the level at 6 h [5] was 66.3 ng/mL, the level at 8 h [5] was 42.7 ng/mL and the level at 24 h [5] was 5.9 ng/mL. The half-life at 5 μM [6] was > 8 h, the remaining at 2 h, 5 μM [6] was 89.8% and the AUC(0-t) [7, 8] was 12400 ng·h/mL. The C0 [7, 8] was 46300 ng/mL, the Tmax [7, 8] was 1.98 min and the Vd [7, 8] was 3.1 L/kg. For the same compound, the clearance [7, 8] was 6.72 mL/min/kg, the half-life [7, 8] was 5.33 h and the “AUC (0-last)” value [7, 9] was 27219 ng·h/g. For the same compound, the Cmax [7, 9] was 3606 ng/g, the Lambda_z [7, 9] was 0.1535 h⁻¹ and the half-life [7, 9] was 4.52 h. For the same compound, the “persistence of substantial amounts in the lung post dose” value ([7]; rat lungs, single intravenous injection) was “at least 24 hours”, the Cmax [7, 10] was 40548 ng/mL and the Lambda_z [7, 10] was 0.1299 h⁻¹. The “time of peak plasma concentrations (Cmax) after dosing” value ([7]; rat plasma, single intravenous injection) was ≤ 2 min.
